The values below come from patent US8975417B2, “Pyrazolopyrrolidine derivatives and their use in the treatment of disease” (Novartis AG, priority 2013, dated 2015).

Assay [1] concerns the target His-Brd4(44-477) (Homo sapiens (Human), UniProt O60885). Description: TR-FRET in-vitro binding assay for BRD4. To be noted: biochemical. In short, it runs like this:
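His-tagged BRD2(60-472), BRD3(20-477) or BRD4(44-477), 45 nM in dispensing solution, with 60 nM tetra-acetylated histone H4 peptide (AcK5/8/12/16) in dispensing solution; HEPES pH 7.5, 50 mM NaCl, 0.1% BSA, 30 °C, 35 min. Eu-anti-His6 antibody plus streptavidin-APC added for TR-FRET read-out; 8-point compound dilutions.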
Background: TR-FRET usually uses a lanthanide donor and a delayed reading to cut background.

Assay [2] addresses His-CREBBP (1081-1197) bromodomain (Homo sapiens (Human), UniProt Q92793). Description: AlphaScreen in-vitro binding assay for CREBBP. Particulars: biochemical. In short, it runs like this: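 Ni-chelate acceptor and streptavidin donor beads (45 µg/mL each, in 50 mM HEPES pH 7.5, 150 mM NaCl, 0.02% BSA) were then added for 60 min at room temperature. IC50 came from 8-point non-linear regression.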
Background: In Alpha technology, singlet oxygen from a donor bead excites a nearby acceptor bead.

Assay [3] has as its system MV-4-11 cells. Description: Cell growth inhibition assay (CellTiter-Glo), MV-4-11. The class given is cell-based. Particulars: Homo sapiens, MV4-11, read-out: MV-4-11 TGI. In short, it runs like this:
(§1)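 Compounds tested as 3-fold dilution series starting at 10 μM (DMSO 0.1% final); viability read by cellular ATP (CTG luminescence) at 37° C. Signal corrected for no-cell background and a day-0 plate, scaled −100% to 100%; four-parameter fitting gives IC50 and TGI.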

Assay [4] deals with THP-1 cells. Description: Cell growth inhibition assay (CellTiter-Glo), THP-1. Particulars: Homo sapiens, read-out: THP-1 TGI. The class given is cell-based. In short, it runs like this:
as §1
A general note: In ATP-based viability assays light output follows the ATP content of the culture.

The test system of assay [5] is K-562 cells. Description: Cell growth inhibition assay (CellTiter-Glo), K-562. The class given is cell-based, human. Particulars: Homo sapiens, K562, read-out: K-562 TGI. In short, it runs like this: as §1

Sequence of His-CREBBP (1081-1197) bromodomain (Q92793 1081-1197): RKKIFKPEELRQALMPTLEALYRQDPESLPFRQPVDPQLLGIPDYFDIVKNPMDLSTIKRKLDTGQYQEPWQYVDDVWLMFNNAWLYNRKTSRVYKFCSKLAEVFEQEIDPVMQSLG

In the case of `Cc1nn(C2CCC2)c2c1C(c1ccc(Cl)cc1)N(c1cc(C)c(=O)n(C)c1)C2=O` (stereo not shown) [Example 94, 4-(4-chlorophenyl)-1-cyclobutyl-5-(1,5-dimethyl-6-oxo-1,6-dihydropyridin-3-yl)-3-methyl-4,5-dihydropyrrolo[3,4-c]pyrazol-6(1H)-one], the values for the IC50 in assay [1] and in assay [2] were 24 nM and 650 nM, respectively. In addition, the IC (total growth inhibition) in assay [3] is 0.0318 µM; in assay [4], 0.0765 µM; in assay [5], greater than 10 µM.

In the case of `CC(=O)Nc1cc(N2C(=O)c3c(c(C)nn3C3CC3)C2c2ccc(Cl)cc2)nn2c(C)nnc12` (stereo not shown) [Example 126, N-(6-(4-(4-chlorophenyl)-1-cyclopropyl-3-methyl-6-oxopyrrolo[3,4-c]pyrazol-5-(1H,4H,6H)-yl)-3-methyl-[1,2,4]triazolo[4,3-b]pyridazin-8-yl)acetamide], the IC50 – broadly, the concentration needed to halve the response being measured – in assay [1] was 1100 nM; in assay [2], greater than 37000 nM. Also, the figures for the IC (total growth inhibition) in assay [3], in assay [4] and in assay [5] were 0.682 µM, 1.15 µM and greater than 10 µM, respectively.

With `CCc1nn(C2CC2)c2c1C(c1ccc(Cl)cc1)N(c1cc(C)c3nnc(C)n3c1)C2=O` (stereo not shown) [Example 70, 4-(4-chlorophenyl)-1-cyclopropyl-5-(3,8-dimethyl-[1,2,4]triazolo[4,3-a]pyridin-6-yl)-3-ethyl-4,5-dihydropyrrolo[3,4-c]pyrazol-6(1H)-one], the IC50 in assay [1] came out at 24 nM; in assay [2], 11000 nM. Also, the IC (total growth inhibition) in assay [3] was 0.0131 µM; in assay [4], 0.0305 µM; in assay [5], greater than 10 µM.

With `COc1ncccc1-n1nc(C)c2c1C(=O)N(c1cc(C)c(=O)n(C)c1)[C@H]2c1ccc(Cl)cc1` [Example 127, (S)-4-(4-chlorophenyl)-5-(1,5-dimethyl-6-oxo-1,6-dihydropyridin-3-yl)-1-(2-methoxypyridin-3-yl)-3-methyl-4,5-dihydropyrrolo[3,4-c]pyrazol-6(1H)-one], the concentration for half-maximal inhibition (IC50) is 5700 nM in assay [1] and greater than 37000 nM in assay [2]. Besides, the values for the IC (total growth inhibition) in assay [3], in assay [4] and in assay [5] were 4.49 µM, greater than 10 µM and greater than 10 µM, respectively.

As to `CCc1nn(C)c2c1C(c1ccc(Cl)cc1)N(c1cc(OC)c3nnc(C)n3c1)C2=O` (stereo not shown) [Example 105, 4-(4-chlorophenol)-3-ethyl-5-(8-methoxy-3-methyl-[1,2,4]triazolo[4,3-a]pyridin-6-yl)-1-methyl-4,5-dihydropyrrolo[3,4-c]pyrazol-6(1H)-one], the IC50 in assay [1] was 68 nM; in assay [2], greater than 37000 nM. Besides, the results for the IC (total growth inhibition) in assay [3], in assay [4] and in assay [5] were 0.164 µM, 0.335 µM and greater than 10 µM, respectively.
